Here are results for twelve molecules from a melting point compilation (Tetko et al.).

Each structure is given as a SMILES string.

For `Cn1nc(-c2cccs2)cc1C=O`, the melting point (in general, the temperature, or range, at which the solid turns liquid) is 76 to 77 °C. The figure for `CC(C=CC=C(C)C=CC1=C(C)CC(O)CC1(C)C)=CC=CC=C(C)C=CC=C(C)C=CC1C(C)=CC(O)CC1(C)C` (configuration not stated) is 196 °C. Molecule `Oc1c(-c2ccccc2)cccc1-c1ccccc1` came in with a melting point of 102 °C. In the case of `CC1OC(O)C(O)C(O)C1O` (configuration not stated) it was 144 to 145 °C. In the case of `c1cnc2c(SSc3cccc4cccnc34)cccc2c1` it was 205 to 206 °C; in that of `COc1ccc(C#N)c(F)c1F`, 84 °C. In the case of `COc1ccc(Cc2cnc(N)nc2N)cc1OC` it was 233 °C; in that of `CSc1ccc(Oc2cccc(F)c2C#N)cc1`, 68 to 71 °C; in that of `Clc1cc2c(cc1Cl)-c1cc(Cl)c(Cl)cc1-2`, 237 to 240 °C. For `Brc1ccsc1Br`, the melting point was -17.5 °C. The figure for `COc1ccc(O)c2ccccc12` is 129 °C. In the case of `CC(=O)c1ccc(O)c(C)c1O` it was 154 °C.
